Laboratory results from patent US7579356B2, “Thia-tetraazaacenaphthylene kinase inhibitors” (Janssen Pharmaceutica NV, priority 2005, dated 2009).

Columns and labels:
Assay type in all cases: biochemical
[1] = target: T1, EGFR (Homo sapiens, UniProt P00533); assay: EGFR Kinase Assay; conditions: for inhibition at 2 µM: test concentration of 2 μM, compounds without an IC50, read-out: EGFR inhibition in percent
T1 construct: The intracellular portion of EGFR started at nucleotide 2189 (corresponding to amino acid 667) and ended at the termination codon; made in house; host or cells: Sf9 insect cells (baculovirus)
T1 sequence (P00533 669-1210 limits assumed): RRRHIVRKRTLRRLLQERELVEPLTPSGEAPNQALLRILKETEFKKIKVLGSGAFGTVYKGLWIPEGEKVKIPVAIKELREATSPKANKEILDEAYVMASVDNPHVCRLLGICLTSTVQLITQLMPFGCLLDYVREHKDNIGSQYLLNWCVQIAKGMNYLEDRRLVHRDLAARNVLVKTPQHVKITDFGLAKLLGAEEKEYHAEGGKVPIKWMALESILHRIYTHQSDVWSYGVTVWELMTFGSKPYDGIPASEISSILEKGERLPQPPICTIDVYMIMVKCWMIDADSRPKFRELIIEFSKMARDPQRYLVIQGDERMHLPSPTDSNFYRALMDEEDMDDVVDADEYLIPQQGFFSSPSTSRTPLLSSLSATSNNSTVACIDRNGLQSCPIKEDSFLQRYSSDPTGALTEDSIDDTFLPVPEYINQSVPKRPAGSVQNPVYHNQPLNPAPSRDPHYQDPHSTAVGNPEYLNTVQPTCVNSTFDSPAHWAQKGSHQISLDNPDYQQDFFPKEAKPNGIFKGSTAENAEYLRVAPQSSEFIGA
Procedure, shortened: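 Potency came from triplicate 16-point half-log titrations starting at 200 uM, with IC50 fitted from % inhibition against log concentration, or % inhibition at 2 μM otherwise. Reaction: Sf9-made GST–EGFR cytoplasmic region (aa 667 onward), biotin-polyGluTyr, 5 μM ATP with 33P tracer, pH 8.0 Tris/Mg/vanadate/DTT, 30 °C for 1 h; captured on streptavidin Flashplates and counted.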

[2] = target: T2, c-Src kinase (human) (Homo sapiens, UniProt P12931); assay: c-Src Kinase Assay; conditions: test concentration of 2 μM; multiple values are separate assay results
T2 construct: purchased Upstate Biotechnology, Lake Placid, N.Y
T2 sequence (P12931 whole entry): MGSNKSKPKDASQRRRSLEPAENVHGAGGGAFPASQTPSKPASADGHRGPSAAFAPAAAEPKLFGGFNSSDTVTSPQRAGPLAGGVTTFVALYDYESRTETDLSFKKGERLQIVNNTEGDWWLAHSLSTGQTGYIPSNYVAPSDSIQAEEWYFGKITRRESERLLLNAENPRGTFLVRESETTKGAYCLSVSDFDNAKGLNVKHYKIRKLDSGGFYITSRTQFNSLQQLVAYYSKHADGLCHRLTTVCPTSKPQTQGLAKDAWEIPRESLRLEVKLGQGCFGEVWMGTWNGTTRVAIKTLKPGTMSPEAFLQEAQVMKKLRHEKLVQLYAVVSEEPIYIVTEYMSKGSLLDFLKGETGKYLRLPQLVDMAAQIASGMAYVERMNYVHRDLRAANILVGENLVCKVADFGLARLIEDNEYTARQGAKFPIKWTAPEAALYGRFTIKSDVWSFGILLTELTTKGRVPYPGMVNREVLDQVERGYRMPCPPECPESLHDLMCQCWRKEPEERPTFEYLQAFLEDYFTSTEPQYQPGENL
Procedure: A mixture of a 10× kinase buffer (80 mM MOPS at pH 7.0, 2 mM EDTA and 100 mM Magnesium Chloride), ATP (5 μM final from a 10 mM stock), a Cdc2 peptide KVEKIGEGTYGVVYK (100 μM final from a 2.5 mM stock), γ-^33P ATP (10 μCl/μL stock) and water (for a total of 20 μL/well) was added to each well of a Streptavidin Flashplate.
Test compound in 100% DMSO (0.5 μL) was added to the appropriate wells. Diluted c-Src kinase (human) (Accession Number SWISS-PROT P12931) (Upstate Biotechnology, Lake Placid, N.Y.) (diluted in a buffer consisting of 20 mM MOPS at pH 7.0, 1 mM EDTA, β-mercaptoethanol (0.1%), Brij-35 (0.01%), glycerol (5%), and 1 mg/mL bovine serum albumin) (2.5 μL) was added to the wells to initiate the reactions. The reaction plates were incubated at 30° C. for 40 min. The reaction was terminated by the addition of a 3% phosphoric acid solution (5 μL). The reaction product (10 μL) was spotted onto a P30 filtermat and washed for 5 minutes in phosphoric acid (75 mM). The wash sequence was repeated two more times, followed with one final wash in methanol. The plates were then dried, sealed and read on the TopCount scintillation counter after adding 30 μL scintillation fluid.
(§1) The c-Src inhibition values were derived using the percent inhibition formula provided in Example 164 and are shown as percent in Table 2 at a test concentration of 2 μM. For those compounds with an IC50, the IC50 value in μM is shown in parentheses. For compounds with multiple test values, each value represents a separate assay result.

[3] = target: T3, Lyn kinase (human) (Homo sapiens, UniProt P07948); assay: Lyn Kinase Assay; conditions: test concentration of 2 μM
T3 construct: purchased Upstate Biotechnology, Lake Placid, N.Y
T3 sequence (P07948 whole entry): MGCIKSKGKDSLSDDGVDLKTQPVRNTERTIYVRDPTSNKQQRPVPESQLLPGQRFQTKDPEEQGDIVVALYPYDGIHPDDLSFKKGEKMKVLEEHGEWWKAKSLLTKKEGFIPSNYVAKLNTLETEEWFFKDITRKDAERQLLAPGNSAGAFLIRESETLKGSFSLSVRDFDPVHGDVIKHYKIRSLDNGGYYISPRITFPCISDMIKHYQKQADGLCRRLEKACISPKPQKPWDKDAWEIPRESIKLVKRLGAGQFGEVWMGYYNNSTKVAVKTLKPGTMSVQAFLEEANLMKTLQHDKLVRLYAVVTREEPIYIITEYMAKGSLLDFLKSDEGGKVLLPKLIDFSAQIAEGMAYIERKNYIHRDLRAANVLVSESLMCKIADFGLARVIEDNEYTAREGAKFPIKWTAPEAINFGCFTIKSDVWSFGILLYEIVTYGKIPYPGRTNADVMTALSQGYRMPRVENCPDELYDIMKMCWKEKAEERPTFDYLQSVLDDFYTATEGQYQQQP
Procedure: A mixture of a 10× kinase buffer (500 mM MOPS at pH 7.5, 1 mM EGTA, 1 mM Sodium Vanadate, 1% β-mercaptoethanol and 100 mM Magnesium Acetate), ATP (5 μM final from a 10 mM stock), polyGluTyr (0.1 mg/mL final from a 1 mg/mL stock), γ-^33P ATP (10 μCl/μL stock) and water (for a total of 20 μL/well) was added to each well of a Streptavidin Flashplate.
Test compound in 100% DMSO (0.5 μL) was added to the appropriate wells. Diluted Lyn kinase (human)(Accession Number EMBL M16038) (Upstate Biotechnology, Lake Placid, N.Y.) (diluted in a buffer consisting of 50 mM Tris at pH 7.5, 0.1 mM EGTA, Sodium Vanadate (0.1 mM), β-mercaptoethanol (0.1%) and 1 mg/mL bovine serum albumin) (2.5 μL) was added to the wells to initiate the reactions.
The reaction plates were incubated at 30° C. for 40 min. The reaction was terminated by the addition of a 3% phosphoric acid solution (5 μL). The reaction product (10 μL) was spotted onto a P30 filtermat and washed for 5 minutes in phosphoric acid (75 mM). The wash sequence was repeated two more times, followed with one final wash in methanol. The plates were then dried, sealed and read on the TopCount scintillation counter after adding 30 μL scintillation fluid.
as §1, with “The Lyn” for “The c-Src”, “derived according to” for “derived using”, “the procedure described” for “the percent inhibition formula provided”, “Table 3” for “Table 2”

[4] = target: T4, HER-2 (Homo sapiens, UniProt P04626); assay: HER-2 Kinase Assay; conditions: test concentration of 1 μM
T4 construct: His6 with thrombin site (N); purchased Proqinase (Freiburg, Germany)
T4 sequence (P04626 679-1255): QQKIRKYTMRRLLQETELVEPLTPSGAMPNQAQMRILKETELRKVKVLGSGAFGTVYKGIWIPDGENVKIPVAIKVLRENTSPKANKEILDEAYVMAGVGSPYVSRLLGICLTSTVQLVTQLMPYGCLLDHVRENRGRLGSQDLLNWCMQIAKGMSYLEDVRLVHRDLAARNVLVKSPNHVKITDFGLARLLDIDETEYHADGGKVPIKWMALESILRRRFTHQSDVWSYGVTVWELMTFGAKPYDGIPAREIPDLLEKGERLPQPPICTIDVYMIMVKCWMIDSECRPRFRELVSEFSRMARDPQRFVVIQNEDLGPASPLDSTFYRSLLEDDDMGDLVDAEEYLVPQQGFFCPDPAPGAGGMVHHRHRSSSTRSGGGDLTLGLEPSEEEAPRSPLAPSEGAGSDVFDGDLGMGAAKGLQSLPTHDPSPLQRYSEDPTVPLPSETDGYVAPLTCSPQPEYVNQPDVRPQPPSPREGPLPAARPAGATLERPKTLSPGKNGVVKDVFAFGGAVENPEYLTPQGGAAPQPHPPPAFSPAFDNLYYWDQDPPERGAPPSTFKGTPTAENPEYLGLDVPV
Procedure, shortened: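 Read-out was scintillation counting of 33P incorporated into biotinylated polyGluTyr captured on streptavidin plates. Reactions ran 1 h at 30 °C with GST-fused HER-2 residues 679–1255, 1 μM ATP, Mn2+ and Mg2+ at pH 7.5; data given as percent inhibition at 1 μM, with IC50 where determined.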

| IC50 ([1]; GST-EGFR, ATP 5 μM) [µM] | inhibition at 2 µM [2] [%] | inhibition at 2 µM [3] [%] | inhibition at 1 µM [4] [%] | inhibition at 2 µM [1] [%] | SMILES |
| --- | --- | --- | --- | --- | --- |
| 7.43 | 3 | -5 | -19 |  | O=C(O)c1sc2ncnc3c2c1NC(=O)N3c1ccc(Br)cc1F [Cpd 40, 5-(4-bromo-2-fluoro-phenyl)-4-oxo-4,5-dihydro-3H-1-thia-3,5,6,8-tetraaza-acenaphthylene-2-carboxylic acid] |
|  | 18 | 29 | -17 | 11 | COc1cc(N2C(=O)Nc3c(C(=O)O)sc4ncnc2c34)c(Cl)cc1Cl [Cpd 41, 5-(2,4-dichloro-5-methoxy-phenyl)-4-oxo-4,5-dihydro-3H-1-thia-3,5,6,8-tetraaza-acenaphthylene-2-carboxylic acid] |
|  | 8 | 24 | -36 | -3 | COc1cc(N2C(=O)Nc3c(C(=O)O)sc4ncnc2c34)cc(OC)c1OC [Cpd 42, 4-oxo-5-(3,4,5-trimethoxy-phenyl)-4,5-dihydro-3H-1-thia-3,5,6,8-tetraaza-acenaphthylene-2-carboxylic acid] |
|  | 45 | 49 | 21 | 26 | COc1cc(N2C(=O)Nc3c(C(=O)Nc4ccc(CN5CCOCC5)cc4)sc4ncnc2c34)c(Cl)cc1Cl [Cpd 44, 5-(2,4-dichloro-5-methoxy-phenyl)-4-oxo-4,5-dihydro-3H-1-thia-3,5,6,8-tetraaza-acenaphthylene-2-carboxylic acid (4-morpholin-1-ylmethyl-phenyl)-amide] |
|  | 17 | 29 | -25 | 14 | COc1cc(N2C(=O)Nc3c(C(=O)Nc4ccc(OCC5CCCCO5)c(OC)c4)sc4ncnc2c34)c(Cl)cc1Cl (stereo not drawn) [Cpd 45, 5-(2,4-dichloro-5-methoxy-phenyl)-4-oxo-4,5-dihydro-3H-1-thia-3,5,6,8-tetraaza-acenaphthylene-2-carboxylic acid [3-methoxy-4-(tetrahydro-pyran-2-ylmethoxy)-phenyl)-amide] |
|  | 30 | 40 | 0 | 1 | COc1cc(N2C(=O)Nc3c(C(=O)N4CCCC4)sc4ncnc2c34)c(Cl)cc1Cl [Cpd 46, 5-(2,4-dichloro-5-methoxy-phenyl)-2-(pyrrolidine-1-carbonyl)3H,5H-1-thia-3,5,6,8-tetraaza-acenaphthylen-4-one] |
|  | 9 | 28 | -28 | 5 | COc1ccc(Cl)c(N2C(=O)Nc3c(C(=O)O)sc4ncnc2c34)c1 [Cpd 47, 5-(2-chloro-5-methoxy-phenyl)-4-oxo-4,5-dihydro-3H-1-thia-3,5,6,8-tetraaza-acenaphthylene-2-carboxylic acid] |
|  | 11 | 17 | -13 | 34 | O=C(Nc1ccc(CN2CCOCC2)cc1)c1sc2ncnc3c2c1NC(=O)N3c1ccc(Br)cc1F [Cpd 53, 5-(4-bromo-2-fluoro-phenyl)-4-oxo-4,5-dihydro-3H-1-thia-3,5,6,8-tetraaza-acenaphthylene-2-carboxylic acid (4-morpholin-4-ylmethyl-phenyl)-amide] |
|  | -16 | 3 | -22 | 14 | O=C(Nc1ccc(CN2CCCC2)cc1)c1sc2ncnc3c2c1NC(=O)N3c1cc(OCc2cccc(F)c2)c(Cl)cc1Cl [Cpd 55, 5-[2,4-dichloro-5-(3-fluoro-benzyloxy)-phenyl]-4-oxo-4,5-dihydro-3H-1-thia-3,5,6,8-tetraaza-acenaphthylene-2-carboxylic acid (4-pyrrolidin-1-ylmethyl-phenyl)-amide] |
